Assay [1] is described as follows: microbe, parasite or virus in culture. As to conditions: Mycobacterium tuberculosis, 72 h, read-out: pIC50 (converted).
Assay [2] is described as follows: microbe, parasite or virus in culture. As to conditions: Mycobacterium tuberculosis, 96 h, read-out: pIC50 (converted).

Regarding `CN(Cc1ccsc1)C(=O)CNC(=O)c1ccc(Br)o1`, the IC50 in assay [1] was 138 µM; in assay [2], 164 µM.
As to `NCCc1cnn(-c2ccccc2)c1`, the IC50 is 230 µM in assay [1] and 250 µM in assay [2].
In the case of `CN1CCCN(C(=O)c2ccco2)c2ccccc21`, the IC50 is 119 µM in assay [1] and 191 µM in assay [2].
Take `CN(C)C(=O)CCCn1nnc(-c2ccsc2)n1`: the IC50 is 89.8 µM in assay [1] and 155 µM in assay [2].
The matching figures for `Cn1cc(NC(=O)CNC(=O)N2CCN(c3ccccc3)CC2)cn1`: over 50.1 µM and over 50.1 µM.
The corresponding values for `CCCc1ccc(C(=O)N2CCCN(C)CC2)cc1` are 270 µM and over 501 µM.
The corresponding values for `COc1ncc(CN2CCOC(Cc3cccc4ccccc34)C2)cn1` (stereo not drawn) are over 50.1 µM and over 50.1 µM.
For the compound `CCc1nc(CN(C)Cc2ncc(-c3cccs3)o2)cs1`, the IC50 is 31.1 µM in assay [1] and 31.4 µM in assay [2].
The matching figures for `COc1cccc(S(=O)(=O)CCN2CCCC2CO)c1` (stereo not drawn): 462 µM and 141 µM.
The corresponding values for `O=C(CCn1cccc1)NCc1ccco1` are 96 µM and over 501 µM.
The matching figures for `NC[C@]12C[C@H]1CCN2Cc1ccccc1`: over 501 µM and 184 µM.
For the compound `O=C(c1ccnn1COc1ccc(Cl)cc1)N1CCCC1`, the IC50 in assay [1] and in assay [2] was over 50.1 µM each time.
Turning to `CCc1ccc(C(=O)NC(C)c2cccnc2)o1` (stereo not drawn), the IC50 in assay [1] and in assay [2] was over 501 µM in each case.
For `CC(c1ccccn1)N(C)C(=O)NCCn1c(=O)oc2ccccc21` (stereo not drawn), the IC50 in assay [1] and in assay [2] was over 50.1 µM in each case.
For the compound `Cc1nc(CN2CCC(CNC(=O)NCCC3CCC3)CC2)oc1C`, the IC50 in assay [1] is 1.06 µM; in assay [2], 0.791 µM.
The matching figures for `NS(=O)(=O)C1CCN(Cc2ccc(Br)c(F)c2)C1` (stereo not drawn): 171 µM and over 501 µM.
The matching figures for `CCN1C(=O)C2(CCOCC2)c2cc(NC(=O)c3cnoc3C)ccc21`: over 50.1 µM and over 50.1 µM.
The corresponding values for `NC(=O)CN1CCC(OCCCc2ccccc2)C1` (stereo not drawn) are 246 µM and 369 µM.
With `CCS(=O)(=O)NCCOc1ccc2c(c1)OCO2`, the IC50 in assay [1] was 230 µM; in assay [2] it was 204 µM.
Turning to `CNC(=O)CCN1CCC(=Cc2ccccc2)CC1`, the IC50 in assay [1] was 258 µM; in assay [2] it was over 501 µM.
For the compound `COc1cccc(F)c1C(C)NC(=O)c1nccn1C` (stereo not drawn), the IC50 is 322 µM in assay [1] and 252 µM in assay [2].
The corresponding values for `OCCCN1CCC(=Cc2ccccc2)CC1` are 277 µM and 250 µM.
On to `CCOCC(=O)NC(C)c1c(F)cccc1OC` (stereo not drawn), for which the IC50 in assay [1] is 178 µM; in assay [2] it was 277 µM.
The corresponding values for `O=C(NCc1cccs1)c1cnsn1` are 3.61 µM and 17.4 µM.
The matching figures for `O=C(CC1COCCN1Cc1ccon1)c1cccs1` (stereo not drawn): 172 µM and over 501 µM.
The corresponding values for `COCCc1noc(C2CNC2)n1` are 247 µM and 250 µM.
As for `Cc1cc(Br)cc2cc(C(=O)NC(C)(CO)CO)oc12`, the IC50 in assay [1] is 369 µM; in assay [2], 285 µM.
The corresponding values for `CCC(=O)c1cccc(S(=O)(=O)NC(CN)C2CC2)c1` (stereo not drawn) are over 501 µM and over 501 µM.
On to `NC(=O)c1ccsc1NC(=O)CCN1CCCC1`, for which the IC50 was 204 µM in assay [1] and 248 µM in assay [2].
The matching figures for `O=C(c1cnsn1)N1CCN(c2ccccn2)CC1`: 84.6 µM and 51.4 µM.
The matching figures for `CCc1nc(CN(C)C2CCN(CCC(=O)N3CCCCC3)C2)no1` (stereo not drawn): over 50.1 µM and over 50.1 µM.
For the compound `COc1ccc(C(=O)CCN(C)C)cc1`, the IC50 in assay [1] is 114 µM; in assay [2] it was 294 µM.
The matching figures for `CCOc1ccc(OCc2nccc(-c3cc(C(=O)O)ccn3)n2)cc1`: over 50.1 µM and over 50.1 µM.
The matching figures for `COCCN(Cc1ccoc1)S(=O)(=O)c1ccc(F)c(Cl)c1`: over 50.1 µM and over 50.1 µM.
The matching figures for `Cc1cc(CN(C)Cc2csc(-c3ccc(C(C)C)cc3)n2)no1`: over 50.1 µM and 37.9 µM.
Regarding `Cn1nccc1C(=O)N1CCC(Oc2ccccc2)C1` (stereo not drawn), the figures for the IC50 in assay [1] and in assay [2] were 232 µM and 161 µM, respectively.
On to `OC[C@@H]1CCCN1Cc1cccc(F)c1F`, for which the IC50 in assay [1] and in assay [2] was over 501 µM throughout.
As for `COC(=O)[C@H](C)NC(=O)c1noc2c1CCCCC2`, the IC50 in assay [1] is 238 µM; in assay [2] it was over 501 µM.
For `Cc1cc(C)n(CC(=O)NCc2ccc(F)cc2)n1`, the figures for the IC50 in assay [1] and in assay [2] were 216 µM and over 501 µM, respectively.
With `Cc1ccc(C(=O)N2CCN(c3nccs3)CC2)o1`, the IC50 is 157 µM in assay [1] and 183 µM in assay [2].
Regarding `CNC(=O)CSCc1nc(-c2ccccc2C)no1`, the IC50 was 134 µM in assay [1] and 156 µM in assay [2].
As for `Cc1cc(=O)[nH]c(SC(C)C(=O)N2CCC(NS(C)(=O)=O)CC2)n1` (stereo not drawn), the IC50 in assay [1] and in assay [2] was over 50.1 µM each time.
Turning to `CCN1CCN(C(C)CNC(=O)Cn2cnnn2)CC1` (stereo not drawn), the IC50 in assay [1] and in assay [2] was over 501 µM in each case.
Take `Cc1ccc(NC2CCN(C(=O)C(C)n3cncn3)CC2)nn1` (stereo not drawn): the IC50 in assay [1] and in assay [2] was over 50.1 µM each time.
Turning to `COc1ncccc1C(=O)NCCc1cccs1`, the IC50 in assay [1] is 347 µM; in assay [2] it was 285 µM.
The corresponding values for `O=C(CNc1ccc(Br)cc1)NCc1ncc[nH]1` are 228 µM and over 501 µM.
For the compound `Cc1cccc(CN2CCCC3(CCN(C4CCSCC4)C3)C2=O)c1` (stereo not drawn), the IC50 in assay [1] is 10 µM; in assay [2], 15.8 µM.
The corresponding values for `O=C1CCN(CCOc2cc(F)cc(Br)c2)CCN1` are 198 µM and 279 µM.
As to `COCCC1CN(C(=O)c2ccc(C)c(F)c2)CCO1` (stereo not drawn), the IC50 in assay [1] was 257 µM; in assay [2] it was 234 µM.
The matching figures for `N#Cc1cc(Br)ccc1NCCC(=O)N1CCOCC1`: 165 µM and over 501 µM.
The corresponding values for `Cc1cccnc1NCCNC1CSCCSC1` are 248 µM and over 501 µM.
The corresponding values for `COC(=O)COc1ccc2c(c1)OCO2` are 140 µM and over 501 µM.
Take `CC(C)OCc1cccc(CNc2cnn(C)c(=O)c2Cl)c1`: the IC50 in assay [1] was 19.1 µM; in assay [2], 5.63 µM.
On to `CN(C)CCN1CCOCC2(C1)CN(Cc1ccsc1)CCO2` (stereo not drawn), for which the IC50 in assay [1] and in assay [2] was over 50.1 µM each time.
As for `Cc1nc(CNCC2COCc3c(-c4ccoc4)nnn3C2)cs1` (stereo not drawn), the IC50 in assay [1] and in assay [2] was over 50.1 µM each time.
For the compound `CCC(O)CN1CCN(c2ncccc2Br)CC1` (stereo not drawn), the IC50 in assay [1] and in assay [2] was over 501 µM throughout.
As for `COc1ccc2c(c1)NCC(C)O2` (stereo not drawn), the IC50 in assay [1] was 94.8 µM; in assay [2] it was 214 µM.
The matching figures for `CC(Nc1ccc(C#N)cn1)c1ccc2c(c1)OCO2` (stereo not drawn): 215 µM and 234 µM.
The corresponding values for `COC[C@H]1CCCN1c1nccc(-c2cnn(-c3ccccc3C)c2)n1` are 17.8 µM and 43.3 µM.

These data come from ChEMBL document CHEMBL3988442, “University of Dundee, Small-Polar-MMV Screening Library” (2021).
